Results: patent US7109193B2, “Tricyclic diazepines tocolytic oxytocin receptor antagonists” (Wyeth, priority 2001, dated 2006)

Molecular target: T1, human vasopressin V1a receptor subtype (Homo sapiens, UniProt P37288)
T1 construct: host or cells: CHO cells (pZeoSV vector for the Thibonnier line)
Assay: Vasopressin binding in Chinese Hamster Ovary cell membranes expressing human vasopressin V1a subtype receptors
Conditions: 100 nM, CHO cell membranes, [3H]Manning ligand, values without parentheses
Experimental: Vasopressin Binding in Chinese Hamster Ovary Cell Membranes Expressing Human Vasopressin V1a Subtype Receptors
The trypsin is removed by aspiration and the cells dislodged by tapping. Cell Culture medium (e.g. 30 mL for 1:30 split) is immediately added and mixed well to inactivate trypsin. 1 mL of detached cells is added to new culture flasks containing fresh cell culture medium (e.g., into 25 mL per T-150 flask), and mixed gently. The cells are incubated at 37° C. in 5% CO2. The medium is changed at 3 to 4 days interval (or as appropriate). […] All steps are done under sterile conditions. B. Membrane Preparation: The cells are washed twice gently with Hank's Balanced Salt solution (e.g,. use 10 mL per T-150 flask). […] The contents are transferred to centrifuge tubes (50 mL) kept in an ice bath. All subsequent steps are done at 4° C. The tubes are centrifuged at 300×g for 15 min (1380 rpm on SORVAL, Model RT6000D, using the rotor for 50 mL tubes). The supernatant is discarded and the cells suspended in homogenizing buffer(10 mM Tris-HCl containing 0.25 M sucrose and 1 mM EDTA, pH 7.4) ensuring that the volume of the buffer is about ten times the volume of the cell pellet. The cells are pooled into a centrifuge tube (50 mL) and homogenized with a Polytron at setting 6 for 10 sec. The homogenate is transferred into a Potter-Elvjehm homogenizer and homogenized with 3 strokes. The homogenate is centrifuged at 1500×g for 10 min at 4° C. (3100 rpm using SORVAL, model RT6000D, using the rotor for 50 mL tubes). The pellet is discarded. The supernatant is centrifuged at 100,000×g for 60 min. at 4° C. (Beckman L8-80M ultracentrifuge; spin at 37,500 rpm with rotor type 70 Ti for 50 mL tubes; 38,000 rpm with type 80Ti for 15 mL tubes; or 35,800 rpm with rotor type 45Ti). The supernantant is discarded and the pellet suspended in 3 to 4 mL of Tris buffer (50 mM TRIS-HCl, pH 7.4). The protein content is estimated by the Bradford or Lowry method. The volume of the membrane suspension is adjusted with the membrane buffer (50 mM Tris-HCl containing 0.1% BSA and 0.1 mM PMSF) to give 3.0 mg/mL (or as appropriate) of protein. The membranes are aliquoted and stored at −70° C. C. Radioligand Binding Assay: In wells of a 96-well format microtiter plate, is added 90, 110 or 130 μL (to make up a final volume of 200 μL) of assay buffer containing 50 mM of Tris-HCl (pH 7.4), BSA (heat inactivated, protease-free), […], 1 mg % aprotinin, 1 mg % leupeptin, 2 mg % 1,10-phenanthroline, 10 mg % trypsin inhibitor, and 0.1 mM PMSF. The inhibitors are added on the day of the experiment. The components are mixed at room temperature, and then kept in ice bath following adjustment of the pH to 7.4. […] 20 μL of 50% DMSO is added for Manning and other peptide ligands and the assay buffer volume is adjusted accordingly. To each well is added 50 μL of frozen membrane suspension thawed immediately prior to use and diluted in the assay buffer to the required concentration (equivalent to 25 to 50 μg of protein/well as needed). 20 μL of 8 nM [^3H]Manning ligand in the assay buffer, prepared just before use, is added, and incubated at room temperature for 60 min. shaking the plate on a mechanical shaker for the first 15 min. The incubation is stopped by rapid filtration of the plate contents followed by wash with ice-cold buffer (50 mM Tris-HCl, pH 7.4) using a cell harvester (Tomtek and Printed filtermat-B filter paper). The filter paper is thoroughly dried (7–12 min. in a microwave oven) and impregnated with MeltiLex B/H melt-on scintillation wax sheets and the radioactivity counted in a betaplate scintillation counter.
Binding data is either reported as percent inhibition at a certain concentration or if an IC50 was calculated, as a nanomolar concentration.

T1 sequence (P37288 whole entry): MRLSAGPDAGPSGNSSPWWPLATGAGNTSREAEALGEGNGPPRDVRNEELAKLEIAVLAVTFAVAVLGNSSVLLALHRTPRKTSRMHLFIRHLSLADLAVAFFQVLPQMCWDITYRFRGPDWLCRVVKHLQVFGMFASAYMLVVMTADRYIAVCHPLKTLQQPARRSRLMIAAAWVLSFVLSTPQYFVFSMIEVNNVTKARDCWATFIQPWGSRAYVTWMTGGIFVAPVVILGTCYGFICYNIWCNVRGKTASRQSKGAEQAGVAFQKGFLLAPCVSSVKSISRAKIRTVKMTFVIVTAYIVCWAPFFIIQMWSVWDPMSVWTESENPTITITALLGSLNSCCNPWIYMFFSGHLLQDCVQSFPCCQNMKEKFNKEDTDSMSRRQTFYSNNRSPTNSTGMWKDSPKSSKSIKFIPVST

With `Cc1ccccc1-c1ccc(C(=O)N2Cc3ccc(C(=O)N4CCC(N5CCCC5)CC4)n3Cc3ccccc32)cc1C` [Example 138, {10-[(2,2′-Dimethyl[1,1′-biphenyl]-4-yl)carbonyl]-10,11-dihydro-5H-pyrrolo[2,1-c][1,4]benzodiazepin-3-yl}[4-(1-pyrrolidinyl)-1-piperidinyl]methanone] the inhibition at 0.1 µM was 47%.

Compound `CN(C)CCCN(C)C(=O)c1ccc2n1Cc1ccccc1N(C(=O)c1ccc(-c3cccc4ccccc34)cc1Cl)C2` [Example 109, 10-[2-Chloro-4-(1-naphthyl)benzoyl]-N-[3-(dimethylamino)propyl]-N-methyl-10,11-dihydro-5H-pyrrolo[2,1-c][1,4]benzodiazepine-3-carboxamide] has an inhibition at 0.1 µM of 9%.

For `COc1cc(C(=O)N2Cc3ccc(C(=O)N4CCC[C@H]4CN4CCCC4)n3Cc3ccccc32)ccc1-n1c(C)ccc1C` [Example 321, {10-[4-(2,5-Dimethyl-1H-pyrrol-1-yl)-3-methoxybenzoyl]-10,11-dihydro-5H-pyrrolo[2,1-c][1,4]benzodiazepin-3-yl}[(2S)-2-(1-pyrrolidinylmethyl)pyrrolidinyl]methanone], the “V1a % inhibition @ 100 nM” value was 5%.

For `COc1ccccc1-c1ccc(C(=O)N2Cc3ccc(C(=O)N4CCC[C@H]4CN4CCCC4)n3Cc3ccccc32)cc1OC` [Example 269, {10-[(2,2′-Dimethoxy[1,1′-biphenyl]-4-yl)carbonyl]-10,11-dihydro-5H-pyrrolo[2,1-c][1,4]benzodiazepin-3-yl}[(2S)-2-(1-pyrrolidinylmethyl)pyrrolidinyl]methanone], the “V1a % inhibition @ 100 nM” value was −1%.

`COc1cc(C(=O)N2Cc3ccc(C(=O)N4CC[C@@H](N(C)C)C4)n3Cc3ccccc32)ccc1-n1c(C)ccc1C` [Example 322, [(3R)-3-(Dimethylamino)pyrrolidinyl]{10-[4-(2,5-dimethyl-1H-pyrrol-1-yl)-3-methoxybenzoyl]-10,11-dihydro-5H-pyrrolo[2,1-c][1,4]benzodiazepin-3-yl}methanone] was tested, and the “V1a % inhibition @ 100 nM” value was 12%.

“{10-[(2,2′-Dimethoxy[1,1′-biphenyl]-4-yl)carbonyl]-10,11-dihydro-5H-pyrrolo[2,1-c][1,4]benzodiazepin-3-yl}(4-isopropyl-1-piperazinyl)methanone [Example 244]” was tested, and the “V1a % inhibition @ 100 nM” value was 44%.

In the case of `COc1cc2c(cc1OC)N(C(=O)c1ccc(-c3ccccc3C(F)(F)F)c(C)c1)Cc1ccc(C(=O)N3CCC(=O)CC3)n1C2` [Example 14, 7,8-Dimethoxy-10-{[2-methyl-2′-(trifluoromethyl)-[1,1′-biphenyl]-4-yl]carbonyl}-[(10,11-dihydro-5H-pyrrolo[2,1-c][1,4]benzodiazepin-3-yl)carbonyl]-4-piperidinone], the “V1a % inhibition @ 100 nM” value is reported as −16%.

For `COc1cccc(-c2cc(OC)c(C(=O)N3Cc4ccc(C(=O)N5CCC(N6CCCCC6)CC5)n4Cc4ccccc43)cc2Cl)c1` [Example 117, {10-[(6-Chloro-3-methoxy-3′-methoxy[1,1′-biphenyl]-4-yl)carbonyl]-10,11-dihydro-5H-pyrrolo[2,1-c][1,4]benzodiazepin-3-yl}[4-(1-piperidinyl)-1-piperidinyl]methanone], the inhibition at 0.1 µM was -3%.

Work on `COc1cc(C(=O)N2Cc3ccc(C(=O)NCCN4CCCCC4)n3Cc3ccccc32)ccc1-c1ccccc1C` [Example 154, 10-[(2-Methoxy-2′-methyl[1,1′-biphenyl]4-yl)carbonyl]-N-[2-(1-piperidinyl)ethyl]-10,11-dihydro-5H-pyrrolo[2,1-c][1,4]benzodiazepine-3-carboxamide] yielded an inhibition at 0.1 µM of 39%.

For `Cc1ccccc1-c1ccc(C(=O)N2Cc3ccc(C(=O)NCCN4CCCCC4)n3Cc3ccccc32)cc1` [Example 153, 10-[(2′-Methyl[1,1′-biphenyl]-4-yl)carbonyl]-N-[2-(1-piperidinyl)ethyl]-10,11-dihydro-5H-pyrrolo[2,1-c][1,4]benzodiazepine-3-carboxamide], the inhibition at 0.1 µM was 50%.

`COc1ccccc1-c1ccc(C(=O)N2Cc3ccc(C(=O)N4CCC(N5CCCC5)CC4)n3Cc3ccccc32)cc1OC` [Example 145, {10-[(2,2′-Dimethoxy[1,1′-biphenyl]4-yl)carbonyl]-10,11-dihydro-5H-pyrrolo[2,1-c][1,4]benzodiazepin-3-yl}[4-(1-pyrrolidinyl)-l-piperidinyl]methanone] was tested, and the “V1a % inhibition @ 100 nM” value was −4%.

For `Cc1ccccc1-c1ccc(C(=O)N2Cc3ccc(C(=O)NCCN4CCCCC4)n3Cc3ccccc32)cc1C` [Example 150, 10-[(2,2′-Dimethyl[1,1′-biphenyl]-4-yl)carbonyl]-N-[2-(1-piperidinyl)ethyl]-10,11-dihydro-5H-pyrrolo[2,1-c][1,4]benzodiazepine-3-carboxamide], the inhibition at 0.1 µM was 42%.

`COc1ccccc1-c1ccc(C(=O)N2Cc3ccc(C(=O)N4CCC(N5CCCC5)CC4)n3Cc3ccccc32)cc1C` [Example 137, {10-[(2′-Methoxy-2-methyl[1,1′-biphenyl]-4-yl)carbonyl]-10,11-dihydro-5H-pyrrolo[2,1-c][1,4]benzodiazepin-3-yl}[4-(1-pyrrolidinyl)-1-piperidinyl]methanone] gave an inhibition at 0.1 µM of 4%.

For `COc1cccc(-c2ccc(C(=O)N3Cc4ccc(C(=O)N5CCC[C@H]5CN5CCCC5)n4Cc4ccccc43)cc2OC)c1` [Example 270, {10-[(2,3′-Dimethoxy[1,1′-biphenyl]-4-yl)carbonyl]-10,11-dihydro-5H-pyrrolo[2,1-c][1,4]benzodiazepin-3-yl}[(2S)-2-(1-pyrrolidinylmethyl)pyrrolidinyl]methanone], the “V1a % inhibition @ 100 nM” value was 40%.

In the case of `COc1cc(C(=O)N2Cc3ccc(C(=O)N4CC[C@@H](N(C)C)C4)n3Cc3ccccc32)ccc1-c1cccc2ccccc12` [Example 276, [(3R)-3-(Dimethylamino)pyrrolidinyl]{10-[3-methoxy-4-(1-naphthyl)benzoyl]-10,11-dihydro-5H-pyrrolo[2,1-c][1,4]benzodiazepin-3-yl}methanone], the “V1a % inhibition @ 100 nM” value is reported as 4%.

In the case of `Cc1ccccc1-c1ccc(C(=O)N2Cc3ccc(C(=O)N4CCC(N5CCCCC5)CC4)n3Cc3ccccc32)cc1` [Example 115, {10-[(2′-Methyl[1,1′-biphenyl]-4-yl)carbonyl]-10,11-dihydro-5H-pyrrolo[2,1-c][1,4]benzodiazepin-3-yl}[4-(1-piperidinyl)-1-piperidinyl]methanone], the inhibition at 0.1 µM is reported as 11%.

Compound `COc1cc(C(=O)N2Cc3ccc(C(=O)NCCCn4ccnc4)n3Cc3ccccc32)ccc1-c1ccccc1C` [Example 128, N-[3-(1H-Imidazol-1-yl)propyl]-10-[(2-methoxy-2′-methyl[1,1′-biphenyl]-4-yl)carbonyl]-10,11-dihydro-5H-pyrrolo[2,1-c][1,4]benzodiazepine-3-carboxamide] has an inhibition at 0.1 µM of 18%.

`COc1cccc(-c2ccc(C(=O)N3Cc4ccc(C(=O)N5CCN(CCN(C)C)CC5)n4Cc4ccccc43)cc2C)c1` [Example 199, {4-[2-(Dimethylamino)ethyl]-1-piperazinyl{}10-[(3′-methoxy-2-methyl[1,1′-biphenyl]-4-yl)carbonyl]-10,11-dihydro-5H-pyrrolo[2,1-c][1,4]benzodiazepin-3-yl}methanone] was tested, and the “V1a % inhibition @ 100 nM” value was 23%.

With `COc1ccccc1-c1ccc(C(=O)N2Cc3ccc(C(=O)NCCN4CCCCC4)n3Cc3ccccc32)cc1C` [Example 149, 10-[(2′-Methoxy-2-methyl[1,1′-biphenyl]-4-yl)carbonyl]-N-[2-(1-piperidinyl)ethyl]-10,11-dihydro-5H-pyrrolo[2,1-c][1,4]benzodiazepine-3-carboxamide] the inhibition at 0.1 µM was 17%.
